# Experimental data from PMC11580958 (bioRxiv, 2024).
# Residues, ends and D or L forms follow the SMILES beside them. *: point of attachment. Cbz = O=C(OCc1ccccc1)*
# B1: chicken ovalbumin (protein)
# chain: MGSIGAASMEFCFDVFKELKVHHANENIFYCPIAIMSALAMVYLGAKDSTRTQINKVVRFDKLPGFGDSIEAQCGTSVNVHSSLRDILNQITKPNDVYSFSLASRLYAEERYPILPEYLQCVKELYRGGLEPINFQTAADQARELINSWVESQTNGIIRNVLQPSSVDSQTAMVLVNAIVFKGLWEKAFKDEDTQAMPFRVTEQESKPVQMMYQIGLFRVASMASEKMKILELPFASGTMSMLVLLPDEVSGLEQLESIINFEKLTEWTSSNVMEERKIKVYLPRMKMEEKYNLTSVLMAMGITDVFSSSANLSGISSAESLKISQAVHAAHAEINEAGREVVGSAEAGVDAASVSEEFRADHPFLFCIKHIATNAVLFFGRCVSP
# Columns and labels:
# BMDCs = test: […] antigen presentation on DCs; assay type: cell-based, C57BL/6 mouse; details: CpG adjuvant, treatment 12-24 h, flow cytometry
# CRBN protein = CRBN protein (Homo sapiens, UniProt Q96SW2); test: Nano ITC measurement of PROTAV-CRBN binding; details: data did not fit the binding model
# Chain of CRBN protein (Q96SW2 whole entry, species assumed): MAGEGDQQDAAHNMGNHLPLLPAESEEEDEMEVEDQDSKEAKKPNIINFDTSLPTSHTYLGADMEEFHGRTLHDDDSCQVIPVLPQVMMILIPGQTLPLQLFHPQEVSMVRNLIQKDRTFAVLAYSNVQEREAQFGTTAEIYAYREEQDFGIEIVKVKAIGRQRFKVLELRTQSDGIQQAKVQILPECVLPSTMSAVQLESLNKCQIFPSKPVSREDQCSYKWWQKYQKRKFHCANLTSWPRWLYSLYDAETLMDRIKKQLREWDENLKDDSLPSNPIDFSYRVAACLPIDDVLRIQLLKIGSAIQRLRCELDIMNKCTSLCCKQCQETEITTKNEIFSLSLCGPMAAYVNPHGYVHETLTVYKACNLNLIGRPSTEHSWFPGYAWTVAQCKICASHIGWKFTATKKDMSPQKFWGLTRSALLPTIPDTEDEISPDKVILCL
Molecule,H-2Kb/SIINFEKL presentation on DCs (in words) (BMDCs),Binding to CRBN (in words) (CRBN protein)
CC(C)C[C@@H](C=O)NC(=O)[C@H](CC(C)C)NC(=O)[C@H](CC(C)C)NC(=O)OCc1ccccc1 [MG132] (Cbz-Leu-Leu-Leu-aldehyde),reduced the level of SIINFEKL presentation on DCs,–
B1,–,negligible binding
